Experimental data from publication PMC11187126, “Structure and dynamics of the pyroglutamylated RF-amide peptide QRFP receptor GPR103” (Nature Communications, 2024).
Read-outs that look alike come from different tables or passages of the source. No end group written: not given here.

Target: T1, GPR103 T215^5.39A (Homo sapiens, UniProt Q96P65, T215A)
T1 construct: we used human full-length QRFPR-encoding plasmids; expressed in transfected cells; host or cells: HEK293 cells (HEK293A in the flow cytometry section), pCAGGS vector
T1 sequence (Q96P65 1-431 T215A): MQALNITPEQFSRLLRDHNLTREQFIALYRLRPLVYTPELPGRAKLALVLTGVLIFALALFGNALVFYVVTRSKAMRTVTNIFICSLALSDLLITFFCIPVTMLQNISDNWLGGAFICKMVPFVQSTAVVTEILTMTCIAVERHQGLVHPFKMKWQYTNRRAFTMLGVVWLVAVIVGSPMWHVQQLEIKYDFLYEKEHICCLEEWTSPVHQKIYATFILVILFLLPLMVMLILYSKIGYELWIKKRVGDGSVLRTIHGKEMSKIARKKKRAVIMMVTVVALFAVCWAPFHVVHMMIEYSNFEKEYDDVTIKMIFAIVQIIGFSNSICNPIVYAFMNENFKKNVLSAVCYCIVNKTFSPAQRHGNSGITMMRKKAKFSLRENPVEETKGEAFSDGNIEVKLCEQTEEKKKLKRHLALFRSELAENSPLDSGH
Assay: TGFα shedding assay; Exp. level WT (1:1)
Type: cell-based
Procedure: For the TGFα shedding assay and the flow cytometry analysis, we used human full-length QRFPR-encoding plasmids. Specifically, GPR103 was N-terminally modified with an HA signal sequence followed by a FLAG epitope and then a flexible linker ([…]; the FLAG epitope is underlined) and inserted into the pCAGGS vector. Plasmid encoding GPR103 mutants were generated using Quickchange Site-Directed Mutagensis kit (Agilent).
The TGFα shedding assay was performed as described previously with minor modifications. Plasmid transfection was performed in a 6-well plate with a mixture of 500 ng (per well in a 6-well plate) AP-TGFα-encoding plasmid and 200 ng GPR103-encoding plasmid. After 1-day culture, the transfected cells were harvested by trypsinization, pelleted by centrifugation at 190 × g for 5 min, and washed once with 5 mM HEPES (pH 7.4)-containing Hank’s Balanced Salt Solution (HBSS). After centrifugation, the cells were resuspended in 8 mL of the HEPES-containing HBSS. The cell suspension was seeded in a 96-well culture plate (cell plate) at a volume of 90 μL (per well hereafter) and incubated in a 37 °C incubator with 5% CO2 for 30 min. […] After spinning the cell plates at 190 × g for 2 min, 80 μL of conditioned media was transferred to an empty 96-well plate (conditioned media (CM) plate). Then, 80 μL of AP reaction solution (10 mM p-nitrophenylphosphate (p-NPP), 120 mM Tris-HCl (pH 9.5), 40 mM NaCl, and 10 mM MgCl2) was dispensed into the cell plates and the CM plates. Absorbance at 405 nm of the plates was measured using a microplate reader (SpectraMax 340 PC384, Molecular Devices) before and after 1-h incubation at room temperature. Ligand-induced AP-TGFα release was calculated by subtracting spontaneous AP-TGFα release signal from ligand-induced AP-TGFα release signal. The AP-TGFα release signals were fitted to a four-parameter sigmoidal concentration–response curve, using the Prism 10 software (GraphPad Prism). For each replicate experiment, the pEC50 parameter (negative logarithmic values of EC50 values) of the individual GPR103 mutants were normalized to that of the wild-type GPR103 performed in parallel, and resulting ∆pEC50 values were used to denote ligand response activity of the mutants. […]
Exp. le vel: WT (1:5 0)Exp. le vel: WT (1:5 0)Exp. le vel: WT (1:5 0)Exp. le vel: WT (1:2 0)Exp. le vel: WT (1:2 0)Exp. le vel: WT (1:1 0) […]
L1 4N - t e r mA F2 5N - t e r mA I 2 6N - t e r mA Y 2 9N - t e r mA C 9 82 .5 7A T10 22 .6 1A Exp . l eve l: WT (1 :5)Exp . l evel : >WT (1 :1)Exp. le vel: WT (1:2 0)Exp. le vel: WT (1:2 0)Exp. le vel: WT (1:5 0)Exp . l eve l: WT (1 :1) […]
Exp. le vel: WT (1:1 0)Exp. le vel: WT (1:2 0) C 1 1 83 .2 5AExp. le vel: WT (1:5 0)Exp. le vel: WT (1:5 0)Exp. le vel: WT (1:2 0)Exp . l eve l: WT (1 :5) […]
Exp. le vel: WT (1:5 0)Exp. le vel: WT (1:1 0)Exp. le vel: WT (1:5 0) E203ECL2AExp . l evel : >WT (1 :1)Exp. le vel: WT (1:5 0)Exp. le vel: WT (1:5 0) […]
Exp . l eve l: WT (1 :1) F28Exp. le vel: WT (1:5 0) C 2 8 56 .4 7AExp. le vel: WT (1:2 0) WExp. le vel: WT (1:2 0) F28Exp. le vel: WT (1:5 0)Exp . l evel : >WT (1 :1) […]
Exp. le vel: WT (1:5 0)Exp. le vel: WT (1:5 0) C 3 2 77 .4 8AExp . l eve l: WT (1 :5)Exp . l evel : >WT (1 :1)Exp . l evel : >WT (1 :1) […]
Suppl eme nt ary Figure 1 | Mutational analysis of GPR103. […]
mutants. Data are presented as mean values ± SEM, normally n=3-5; dots), each performed in triplicate. b-d Cell-surface expression (b) and QRFP26-in-duced activation of GPR103 (c, d) were analyzed by the flow cytometry and the TGFα shedding assay, respectively. From the concentration–response curves (a), Emax (c) and ΔpEC50 (d) values relative to the wild type were calculated. Colors in the mutant bars indicate an expression level matching to that of titrated wild type. Statistical analyses were performed using the ordinary one-way ANOVA followed by Dunnett tests with the expression-matched […]

Emax (Exp. #1): 95.52 % WT
Emax (Exp. #2): 99.37 % WT
Emax (Exp. #3): 104.64 % WT
Emax (mean, read-out: Emax): 99.8%
EC50 (n = 3): 6.46 nM
Emax (n = 3, read-out: Emax): 103 ± 2.2%
Substance: TSGPLGNLAEELNGYSRKKGGFSFRF-NH2 [QRFP26]
